Here are results for 5 compounds from publication PMC9354042, “Discovery of BRAF/HDAC Dual Inhibitors Suppressing Proliferation of Human Colorectal Cancer Cells” (Frontiers in Chemistry, 2022).

One assay has as its target T1, HDAC8 (Homo sapiens, UniProt Q9BY41).
T1 construct: purchased BPS Bioscience
T1 sequence (Q9BY41 1-377): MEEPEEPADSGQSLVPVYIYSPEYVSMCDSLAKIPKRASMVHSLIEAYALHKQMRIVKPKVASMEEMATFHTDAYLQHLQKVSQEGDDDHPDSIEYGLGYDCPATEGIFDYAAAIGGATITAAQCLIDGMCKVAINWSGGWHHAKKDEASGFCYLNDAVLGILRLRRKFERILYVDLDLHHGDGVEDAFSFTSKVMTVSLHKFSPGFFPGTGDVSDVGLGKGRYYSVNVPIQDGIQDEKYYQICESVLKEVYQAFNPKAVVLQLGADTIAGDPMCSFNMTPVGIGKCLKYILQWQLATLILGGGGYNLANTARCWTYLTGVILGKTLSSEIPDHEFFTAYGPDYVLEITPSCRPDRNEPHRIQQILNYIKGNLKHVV
Put plainly: HDAC8 fluorescent-based enzymatic activity assay. It counts as biochemical. The note with it: for fold more potent than 14b against HDAC8: HDAC8 IC50 relative to 14b; for pIC50: Supplementary Table 1, read-out: HDAC8 Enzymatic IC50. Here is the method: (§1) The purified recombinant Human HDACs and their corresponding substrates were purchased from BPS Bioscience (BPS Bioscience Inc., United States). The assays were carried out in a 384-well format using the BPS fluorescent–based HDAC activity assay according to the manufacturer’s protocol. In brief, […] of the HDAC reaction mixture was composed of HDAC assay buffer, […] BSA, serial diluted test compounds, appropriate concentration of HDACs, and […] fluorogenic substrate, the mixture was incubated at 37°C for 60 min, and then stopped by the addition of developer containing trypsin and TSA. After 20 min of incubation, the fluorescence was detected at the excitation wavelength of 360 nm and the emission wavelength of 460 nm using the EnVision Multilabel Reader (PerkinElmer Inc., United States). The analytical software, GraphPad Prism 5.0 (GraphPad Software, Inc., United States) was used to generate IC50 value via non-linear regression analysis.

The next assay concerns HT-29 cells. Kind of assay: Antiproliferation CCK-8 assay, HT-29. The note with it: Homo sapiens; CCK-8, 72 h, HT-29 (BRAF^V600E); means of three independent experiments; read-out: Cellular IC50 HT-29. In kind it is cell-based. The procedure: (§2) HCT116 and HT-29 cells were obtained from the Shanghai Cell Bank (Type Culture Collection (TCC), Chinese Academy of Sciences) and cultured in DMEM (10–013-CVR, corning) supplemented with 10% fetal bovine serum (04-001-1A, BI), 1% penicillin/streptomycin (03-031-1B, BI).
(§3) The cells in the logarithmic phase were placed in 96-well plates (∼3000 cells/well) in a complete medium. After incubation overnight, the cells were exposed to the corresponding compounds or vehicle control at the indicated concentration for a further 72 h. Cell proliferation was evaluated using Cell Counting Kit 8 (CCK8, CK04, Dojindo Laboratories, Kumamoto, Japan). OD450 and OD650 were determined using a microplate reader. Absorbance rate (A) for each well was calculated as OD450 −OD650. […] Each IC50 value is expressed as mean ± SD. As is the absorbance rate of the test compound well, Ac is the absorbance rate of the well without either the cell or test compound, and Ab is the absorbance rate of the well with the cell and vehicle control.

The subject of another assay is HCT116 cells. Kind of assay: Antiproliferation CCK-8 assay, HCT116. In kind it is cell-based. To be noted: Homo sapiens, HCT-116; CCK-8, 72 h, HCT116 (wild-type BRAF); means of three independent experiments; read-out: Cellular IC50 HCT116. The procedure:
as §2, §3
(In general: Tetrazolium assays rely on reduction of a dye to a coloured formazan, in cell work by metabolically active cells.)

The next assay concerns the target T2, BRAF^V600E (Homo sapiens, UniProt P15056, V600E).
T2 construct: purchased Invitrogen
Put plainly: BRAF V600E enzymatic activity, FRET-based Z'-Lyte kinase assay. It counts as biochemical. The procedure:
(§4) The experiments were performed according to the instructions of the manufacturer. […] For each assay, 10 μl kinase reactions were added to 384-well plate, mixed thoroughly, and incubated for 1 hour at room temperature. Then, a 5 μl development solution was added to each well and the plate was incubated for another 1 h at room temperature. Then, a 5 μl stop reagent was loaded to stop the reaction. For the control setting, a 5 μl phospho-peptide solution instead of kinase/peptide mixture was used as 100% phosphorylation control. […] The plate was measured on an EnVision Multilabel Reader (Perkin-Elmer). Curve fitting and data presentations were performed using GraphPad Prism, version 5.0. Every experiment was repeated at least two times.

Another assay concerns the target T3, HDAC6 (Homo sapiens, UniProt Q9UBN7).
T3 construct: purchased BPS Bioscience
T3 sequence (Q9UBN7 1-1215): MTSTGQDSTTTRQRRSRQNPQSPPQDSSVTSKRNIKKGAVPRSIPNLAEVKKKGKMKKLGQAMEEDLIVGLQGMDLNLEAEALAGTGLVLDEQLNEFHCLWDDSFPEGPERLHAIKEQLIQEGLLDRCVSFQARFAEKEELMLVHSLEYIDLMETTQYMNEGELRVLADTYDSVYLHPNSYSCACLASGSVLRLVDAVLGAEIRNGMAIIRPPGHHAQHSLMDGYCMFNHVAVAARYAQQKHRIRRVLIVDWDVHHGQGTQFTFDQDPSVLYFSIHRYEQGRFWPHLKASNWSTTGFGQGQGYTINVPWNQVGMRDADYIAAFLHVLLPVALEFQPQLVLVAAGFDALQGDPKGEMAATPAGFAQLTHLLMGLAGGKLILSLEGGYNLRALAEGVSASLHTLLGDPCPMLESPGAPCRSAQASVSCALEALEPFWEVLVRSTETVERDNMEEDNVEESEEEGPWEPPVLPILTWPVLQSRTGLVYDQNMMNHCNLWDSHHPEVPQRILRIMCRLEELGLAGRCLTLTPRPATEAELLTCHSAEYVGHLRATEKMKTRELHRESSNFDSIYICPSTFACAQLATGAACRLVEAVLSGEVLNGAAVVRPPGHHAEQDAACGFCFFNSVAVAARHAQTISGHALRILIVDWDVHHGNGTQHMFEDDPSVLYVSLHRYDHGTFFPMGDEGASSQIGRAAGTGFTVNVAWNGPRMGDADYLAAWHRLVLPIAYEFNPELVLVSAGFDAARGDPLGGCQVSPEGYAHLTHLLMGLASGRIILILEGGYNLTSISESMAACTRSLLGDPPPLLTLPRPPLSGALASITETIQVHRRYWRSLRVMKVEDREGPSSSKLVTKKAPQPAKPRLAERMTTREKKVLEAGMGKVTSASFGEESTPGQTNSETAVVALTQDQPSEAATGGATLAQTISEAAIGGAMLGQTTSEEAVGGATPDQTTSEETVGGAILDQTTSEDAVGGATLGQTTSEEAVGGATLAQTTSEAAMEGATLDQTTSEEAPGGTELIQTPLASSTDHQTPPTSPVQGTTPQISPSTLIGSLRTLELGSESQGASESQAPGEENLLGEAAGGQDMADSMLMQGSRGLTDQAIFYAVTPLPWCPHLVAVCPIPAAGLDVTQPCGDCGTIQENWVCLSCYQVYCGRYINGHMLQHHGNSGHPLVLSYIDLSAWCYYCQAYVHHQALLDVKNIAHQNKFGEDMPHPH
Kind of assay: HDAC6 fluorescent-based enzymatic activity assay. It counts as biochemical. The note with it: Table 1; read-out: Enzymatic IC50 HDAC6. The procedure: as §1

Assay [1] deals with BRAF (wild-type). Kind of assay: wild-type BRAF enzymatic activity, Z'-Lyte kinase assay. The note with it: ratio of enzymatic IC50. In kind it is biochemical. The procedure: as §4
For assay [2], the target named is T4, BRAF (wild-type) (Homo sapiens, UniProt P15056).
T4 construct: purchased Invitrogen
T4 sequence (P15056 whole entry): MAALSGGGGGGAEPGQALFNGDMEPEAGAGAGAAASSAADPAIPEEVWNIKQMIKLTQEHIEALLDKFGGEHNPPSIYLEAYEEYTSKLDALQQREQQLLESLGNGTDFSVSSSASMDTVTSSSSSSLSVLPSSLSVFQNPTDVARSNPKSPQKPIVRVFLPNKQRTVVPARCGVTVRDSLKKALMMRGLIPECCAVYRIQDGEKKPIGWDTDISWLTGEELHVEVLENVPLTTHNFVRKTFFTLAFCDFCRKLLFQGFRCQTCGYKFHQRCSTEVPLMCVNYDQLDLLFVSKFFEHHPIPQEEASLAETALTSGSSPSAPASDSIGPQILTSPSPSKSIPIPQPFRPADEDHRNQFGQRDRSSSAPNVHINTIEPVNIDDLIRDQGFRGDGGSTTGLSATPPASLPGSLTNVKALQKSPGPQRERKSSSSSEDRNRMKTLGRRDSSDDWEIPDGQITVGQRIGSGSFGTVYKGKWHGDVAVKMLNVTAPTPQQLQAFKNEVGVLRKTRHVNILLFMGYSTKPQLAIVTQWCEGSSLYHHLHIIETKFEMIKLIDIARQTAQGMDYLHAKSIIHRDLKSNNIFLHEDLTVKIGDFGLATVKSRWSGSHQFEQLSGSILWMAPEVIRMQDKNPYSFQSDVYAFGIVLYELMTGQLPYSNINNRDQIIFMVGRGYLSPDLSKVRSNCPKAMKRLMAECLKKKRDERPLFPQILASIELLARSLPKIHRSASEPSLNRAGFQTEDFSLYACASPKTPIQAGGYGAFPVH
The assay is described as above. In kind it is biochemical. To be noted: wild-type BRAF kinase; read-out: BRAF^wt enzymatic IC50. The procedure: as §4

Another assay deals with T5, HDAC1 (Homo sapiens, UniProt Q13547).
T5 construct: purchased BPS Bioscience
T5 sequence (Q13547 whole entry): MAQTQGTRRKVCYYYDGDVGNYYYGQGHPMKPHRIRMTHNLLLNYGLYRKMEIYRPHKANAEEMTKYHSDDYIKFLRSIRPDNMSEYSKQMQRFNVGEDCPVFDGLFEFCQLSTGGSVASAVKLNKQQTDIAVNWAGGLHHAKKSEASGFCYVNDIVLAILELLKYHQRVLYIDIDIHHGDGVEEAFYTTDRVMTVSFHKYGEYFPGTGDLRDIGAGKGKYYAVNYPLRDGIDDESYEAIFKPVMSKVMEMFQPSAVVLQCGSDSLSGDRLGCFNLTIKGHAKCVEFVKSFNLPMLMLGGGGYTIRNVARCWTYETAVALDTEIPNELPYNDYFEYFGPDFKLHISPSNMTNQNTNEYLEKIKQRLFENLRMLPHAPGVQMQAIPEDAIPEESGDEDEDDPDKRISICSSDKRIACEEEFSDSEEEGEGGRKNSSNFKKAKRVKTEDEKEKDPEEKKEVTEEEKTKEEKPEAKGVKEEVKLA
Kind of assay: HDAC1 fluorescent-based enzymatic activity assay. The note with it: Table 1; read-out: Enzymatic IC50 HDAC1. It counts as biochemical. The procedure:
as §1

Assay [3] concerns Ac-histone H3, Ac-α-tubulin, p-ERK in HCT116 cells. Put plainly: Western blot analysis of HDAC and RAF pathway in HCT116 cells. In kind it is cell-based, human. To be noted: 0.12-10 μM, 6 h; for phosphorylation of ERK (p-ERK): HCT116 cells (wild-type BRAF, K-RAS G13D); for acetylated histone H3 (Ac-histone H3) / acetylated α-tubulin (Ac-α-tubulin): HCT116 cells. Here is the method:
(§5) FIGURE 3 Characterization of dual inhibition of HDAC and RAF pathway. Western blot analysis of 14b in HCT116 cells (A) and in HT-29 cells (B). Cells were treated with 0 μM, 0.12 μM, 0.37 μM, 1.1 μM, 3.3 μM, and 10 μM of drugs and incubated for 6 h. The cell lysis was subjected to Western blot analysis.
(§6) The cells were treated with various concentrations of 14b for 6 h. Then, the cells were lysed using 1×SDS sample lysis buffer (CST recommended) with protease and phosphatase inhibitors. Cell lysates were loaded and electrophoresed onto 8–12% SDS-PAGE gel, and then the separated proteins were transferred to a PVDF film. The film was blocked with 5% BSA (Sigma-Aldrich, St. Louis, MO, United States) in a TBS solution containing 0.5% Tween-20 for 4 h at room temperature, then incubated with the corresponding primary antibody (1:1000–1:200) overnight at 4°C. After washing with TBST, HRP-conjugated secondary antibody was incubated for 2 h. The protein signals were visualized by the ECL Western Blotting Detection Kit (Thermo Scientific, Grand Island, NY, United States), and detected with Amersham Imager 600 system (GE, Boston, MA, United States).

The subject of assay [4] is Ac-histone H3, Ac-α-tubulin, p-ERK in HT-29 cells. Kind of assay: Western blot analysis of HDAC and RAF pathway in HT-29 cells. The note with it: 0.12-10 μM, 6 h. It counts as cell-based, human. Here is the method: as §5, §6
(Immunoblotting shows a protein as a band on a membrane.)

pIC50: −log10 of the molar value. Where only a bound is given, the exact number is not on record here.

T2 sequence (P15056 whole entry V600E): as the sequence (P15056 whole entry) above, with V600E counted along it

By pIC50 is commonly meant −log10 of the IC50, conventionally taken in molar units. Regarding `O=C(CCCCCCNc1nccc(-c2sc(-c3ccccc3)nc2-c2cccc(NS(=O)(=O)c3c(F)cccc3F)c2F)n1)NO` [14j, 7-{[4-(4-(3-(2,6-Difluorophenylsulfonamido)-2-Fluorophenyl)-2-Phenylthiazol-5-yl)Pyrimidin-2-yl]Amino}-N-Hydroxyheptanamide], at HDAC8, the “fold more potent than 14b against HDAC8” value was determined as 3.4 fold. In addition, the pIC50 at HDAC8 is 6.06; in the assay with HT-29 cells, 6.02; in the assay with HCT116 cells, 5.97; against BRAF^V600E it was 8.29; at HDAC6 it was 6.85; on BRAF (wild-type) [2], 8.41. On HDAC1, the negative logarithm of the IC50 (pIC50) was 7.81. Further, the “selectivity of BRAF^V600E over wild-type BRAF” value in the assay with BRAF (wild-type) [1] is on record as “slightly more potent against wild-type BARF”.

As for `CC(C)(C)c1nc(-c2cccc(NS(=O)(=O)c3ccccc3)c2F)c(-c2ccnc(NCCCCCCC(=O)NO)n2)s1` [21c, 7-{[4-(2-(Tert-Butyl)-4-(2-Fluoro-3-(Phenylsulfonamido)Phenyl)Thiazol-5-yl)Pyrimidin-2-yl]Amino}-N-Hydroxyheptanamide], the “fold more potent than 14b against HDAC8” value at HDAC8 worked out at 4.8 fold. For the same compound, the pIC50 on HDAC8 is 6.21; in the assay on HT-29 cells it was 6.96; in the assay with HCT116 cells, 5.69; against BRAF^V600E, 8.90; on HDAC6 it was 7.00; at BRAF (wild-type) [2] it was 8.54. Further, the negative logarithm of the IC50 (pIC50) on HDAC1 was 6.32. In the assay on BRAF (wild-type) [1], the “selectivity of BRAF^V600E over wild-type BRAF” value is reported as “about 2 fold”.

As to `Cc1nc(-c2cccc(NS(=O)(=O)c3ccccc3)c2F)c(-c2ccnc(NCCCCCCC(=O)NO)n2)s1` [21f, 7-{[4-(4-(2-Fluoro-3-(Phenylsulfonamido)Phenyl)-2-Methylthiazol-5-yl)Pyrimidin-2-yl]Amino}-N-Hydroxyheptanamide], the pIC50 in the assay with HT-29 cells was 5.30; with HCT116 cells it was 5.36; against BRAF^V600E, 8.41; at HDAC6 it was 7.73; at HDAC1, 7.31.

As to `CC(C)(C)c1nc(-c2cccc(NS(=O)(=O)c3c(F)cccc3F)c2F)c(-c2ccnc(N)n2)s1` [Dabrafenib, dabrafenib], the negative-log IC50 (pIC50) in the assay with HT-29 cells was 6.68; with HCT116 cells it was less than 5.00. Moreover, the “phosphorylation of ERK (p-ERK)” value in assay [3] is recorded as “paradoxically induced”; in assay [3] (listed as dabrafenib) it was “causes paradoxical activation of ERK”; in assay [4], “reduced”; in [4] (listed as dabrafenib), “reduced the phosphorylation of ERK”. In addition, the “acetylated histone H3 (Ac-histone H3)” value in [3] and in assay [4] was “had little impact” each time. For the same compound, the “acetylated α-tubulin (Ac-α-tubulin)” value in assay [3] and in assay [4] was “had little impact” in each case.

Regarding `O=C(CCCCCCC(=O)Nc1ccccc1)NO` [Vorinostat, vorinostat], the “phosphorylation of ERK (p-ERK)” value in assay [3] and in assay [4] was “had little impact” each time. Further, the “acetylated histone H3 (Ac-histone H3)” value is “dose-dependently induced” in assay [3], “upregulated” in [3] (listed as vorinostat), “dose-dependently induced” in assay [4] and “upregulated” in assay [4] (listed as vorinostat). Moreover, the “acetylated α-tubulin (Ac-α-tubulin)” value was “dose-dependently induced” in [3], “upregulated” in [3] (listed as vorinostat), “dose-dependently induced” in assay [4] and “upregulated” in assay [4] (listed as vorinostat).
